Peptide text beside a SMILES is read from it.
Columns and labels:
SCC12B.2 cells = type: cell-based, human; settings: 5-FU alone, concentration printed as 2004, FIG. 1D
Protocol: Human skin cancer cell lines (SCC12B.2, SCC13, SRB12) were maintained in Dulbecco's modified Eagle's medium (DMEM) (Invitrogen, Carlsbad, Calif., USA) supplemented with 1% penicillin (10 000 U/ml)-streptomycin (10 000 μg/ml) (PenStrep) (Invitrogen) and 10% fetal bovine serum (Gemini Bio-Products, Sacramento, Calif., USA) at 37° C. and 5% CO2. Normal human epidermal keratinocytes (nHEK) (Thermo Scientific, Waltham, Mass., USA) isolated from neonatal foreskin were cultured in EpiLife medium (Invitrogen) supplemented with human keratinocyte growth supplement (Invitrogen) and 1% PenStrep (Invitrogen). Cells were transfected with control pcDNA or pcDNA3.1-HA-14-3-3ε (Addgene plasmid #48797; http://n2t.net/addgene:48797; RRID:Addgene_48797) using Lipofectamine/Plus reagents (Life Technologies, Carlsbad, Calif., USA) or with siRNA targeting 14-3-3ε (Dharmacon, Lafayette, Colo., USA), 14-3-3γ (Dharmacon), 14-3-3ζ, (Dharmacon), Survivin (Cell Signaling, Danvers, Mass., USA), Akt (Dharmacon) or control siRNA (Santa Cruz Biotechnology, Dallas, Tex., USA) using siQuest transfection reagents (Mirus Bio, Madison, Wis., USA) or treated with Akt inhibitor GSK690693 (Tocris Bioscience, Bristol, United Kingdom) or cell cycle inhibitor 5-Fluorouracil (5-FU) (Thermo Fisher) resuspended in DMSO.
To determine the half maximal inhibitory concentration (IC50) for ES1P2 in SCC12B.2 and nHEK cells, cells were plated in a 96-well plate at a density of 6×10^3 cells/well. Twenty-four hours after plating, cells were treated with increasing concentrations of ES1P2 (0-75 μM) in Opti MEM medium supplemented with reduced serum (Invitrogen) for 4 consecutive days. ES1P2 peptide was resuspended fresh, daily in 25 mM Tris buffer (pH 7.5). Neutral Red Cell Viability assays were performed, where absorbance was measured using a Cytation 5 multi-mode plate reader (BioTek). The experiment was repeated three separate times with 4 replicate wells per experiment to obtain an average IC50 value.
Carcinoma human cell lines (SCC12B.2 and SCC13) were maintained in Dulbecco's modified Eagle's medium (DMEM) (Invitrogen, Carlsbad, Calif., USA) supplemented with 1% penicillin (10 000 U/ml)-streptomycin (10 000 μg/ml) (PenStrep) (Invitrogen) and 10% fetal bovine serum (Gemini Bio-Products, Sacramento, Calif., USA) at 37° C. and 5% CO2. Primary normal human epidermal keratinocytes (nHEK) (Thermo Fisher Scientific, Waltham, Mass., USA) isolated from neonatal foreskin were maintained in EpiLife medium (Invitrogen) supplemented with human keratinocyte growth supplement (HKGS) and 1% PenStrep. nHEK cells were not passaged more than twice before experiments. Cells were treated with CDC25A inhibitor NSC663284 (Tocris Bioscience, Bristol, United Kingdom) suspended in DMSO, transfected with wild type CDC25A or control plasmid using Lipofectamine/Plus transfection reagents (Life Technologies, Carlsbad, Calif., USA) or transfected with siRNA targeting 14-3-3 ε or control siRNA (Santa Cruz Biotechnology, Dallas, Tex., USA) using siQuest transfection reagents (Mirus Bio, Madison, Wis., USA).
To determine the half maximal inhibitory concentration (IC50) for pS and pT in SCC12B.2 cells, cells were plated in a 96-well plate at a density of 6×10^3 cells/well. […] Neutral Red Cell Viability assays were performed, where absorbance was measured using a Cytation 5 multi-mode plate reader (BioTek). […]

14-3-3ε protein = target: T1, 14-3-3ε protein (Homo sapiens, UniProt P62258); test: Differential scanning fluorimetry (DSF) binding; settings: 7 μM 14-3-3ε, ΔTm vs peptide concentration, Hill fit; read-out: Kd, binding affinity to 14-3-3ε protein (DSF)
T1 sequence (P62258 1-255): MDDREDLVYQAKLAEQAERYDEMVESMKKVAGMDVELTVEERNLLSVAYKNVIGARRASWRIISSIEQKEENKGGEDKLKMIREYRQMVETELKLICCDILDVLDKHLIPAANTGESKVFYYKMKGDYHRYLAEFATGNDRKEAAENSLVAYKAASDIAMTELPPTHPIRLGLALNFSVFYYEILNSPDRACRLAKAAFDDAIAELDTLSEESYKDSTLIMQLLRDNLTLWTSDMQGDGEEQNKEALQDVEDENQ
Protocol: Differential scanning fluorimetry (DSF) experiments were performed using BioRad CFX384 Real-Time qPCR attached with C1000 Touch Thermo Cycler in the FRET channel. 7 μM subunits of 14-3-3ε protein, ten molar excess of Sypro Orange and 20 mM Tris-HCl, pH 7.4 assay buffer were used in all the melting experiments. Stock solution of peptides were prepared by dissolving 1 mg of lyophilized peptides in 20 mM Tris, pH 7.4 buffer and 0.1 μM to 200 μM dilution series were prepared. Protein melting experiments were performed both in the absence and the presence of increasing concentration of peptides. 15 μL of each samples (in triplicate) were put into each well of a 384-well white PCR plate and sealed with optical adhesive sealer (BioRad MSB-1001) and any air-bubble in the solutions were removed by spinning the plate vertically with PCR plate spinner (Labnet MPS 1000) at 1000 RPM for 3 minutes. The temperature was increased from 25° C. to 95° C. at a rate of 0.7° C. per minute. Melting temperatures of each well were determined using the CFX Maestro software version 2.0 by plotting the first derivative of fluorescence signal against temperature. All the measurements were performed in triplicate and the deviations of melting temperatures (ΔTm) presented for each samples were calculated relatively to three control samples (7 μM 14-3-3ε in the absence of the peptide). Binding constant (Kd) for each peptide was calculated by plotting ΔTm against peptide concentration and data points were fitted with Hill's equation using GraphPad 9.0 software.

SMILES | SCC cells alive (SCC12B.2 cells) [% alive] | Kd (14-3-3ε protein) [µM]
O=c1[nH]cc(F)c(=O)[nH]1 [5-FU, 5-Fluorouracil, reference compound] | 71.5 | 
CC(=O)N[C@@H](CCC(N)=O)C(=O)N[C@@H](CCCNC(=N)N)C(=O)N[C@@H](Cc1ccccc1)C(=O)N[C@@H](CC(N)=O)C(=O)N[C@@H](COP(=O)(O)O)C(=O)N[C@@H](C)C(=O)N1CCC[C@H]1C(=O)N[C@@H](C)C(=O)N[C@@H](CCCNC(=N)N)C(N)=O [Ac-Gln-Arg-Phe-Asn-Ser-(PO3^2−)-Ala-Pro-Ala-Arg-NH2] (HELM PEPTIDE1{[ac].Q.R.F.N.[O=C([C@H](COP(=O)(O)O)N[*:1])[*:2]].A.P.A.R.[am]}$$$$V2.0) |  | 8.29
CC(=O)N[C@@H](CCCNC(=N)N)C(=O)N[C@H](C(=O)N[C@@H](CCCCN)C(=O)N[C@@H](CO)C(=O)N[C@@H](CCCNC(=N)N)C(=O)N[C@H](C(=O)N[C@@H](Cc1ccc(O)cc1)C(=O)N[C@@H](C)C(=O)NCC(N)=O)[C@@H](C)OP(=O)(O)O)[C@@H](C)O [Ac-Arg-Thr-Lys-Ser-Arg-Thr(PO3^2−)-Tyr-Ala-Gly-NH2] (HELM PEPTIDE1{[ac].R.T.K.S.R.[C[C@@H](OP(=O)(O)O)[C@H](N[*:1])C(=O)[*:2]].Y.A.G.[am]}$$$$V2.0) |  | 2.34
CC(=O)N[C@@H](CCC(N)=O)C(=O)N[C@@H](CCCNC(=N)N)C(=O)N[C@@H](Cc1ccc(O)cc1)C(=O)N[C@@H](CC(N)=O)C(=O)N[C@@H](COP(=O)(O)O)C(=O)N[C@@H](C)C(=O)N1CCC[C@H]1C(=O)N[C@@H](C)C(=O)N[C@@H](CCCNC(=N)N)C(N)=O [Ac-Gln-Arg-Tyr-Asn-Ser-(PO3^2−)-Ala-Pro-Ala-Arg-NH2] (HELM PEPTIDE1{[ac].Q.R.Y.N.[O=C([C@H](COP(=O)(O)O)N[*:1])[*:2]].A.P.A.R.[am]}$$$$V2.0) |  | 9.34
